Laboratory results as given in PMC8708666, “Screening of Self-Assembling of Collagen IV Fragments into Stable Structures Potentially Useful in Regenerative Medicine” (International Journal of Molecular Sciences, 2021).

What was measured:
[1] = CD study of self-organization into structures mimicking the collagen triple helix; type: physicochemical; parameters: key to Ability to Mimic the Structure of the Collagen Helix: +++: peptides that were able to mimic the spatial structure of collagen at 4 °C, 20 °C and 40 °C; +: a fragment mimicking the spatial structure of collagen only at 4 °C; fragments that do not have the ability to aggregate into stable three-dimensional structures; settings: CD at 4 °C, 20 °C and 40 °C after 24 h incubation; for ability to self-organize into structures mimicking the triple helix (CD): water, 0.1 mg/mL
Description: The next stage of the research was to check whether peptides 1–33 and 2.1–2.4 have the ability to self-organize, enabling the formation of structures mimicking the structure of the triple helix characteristic of collagens, including the COL domain of type IV collagen. The method of circular dichroism was used in the research, allowing both the secondary and tertiary structure of peptides and proteins to be determined. This method can also be successfully used to observe the process of protein self-organization depending on the temperature or pH. […] A characteristic feature of triple helix collagens is the maximum at about 220 nm and the minimum at about 190–200 nm. Based on literature data, the CD spectrum corresponding to the triple helix characteristic of collagens as a function of temperature was simulated (Figure 9j). The main factors stabilizing the collagen triple helix are the hydrogen bonds between the hydrogen atom of the amino group and the oxygen atom of the carbonyl group. These are relatively weak bonds, and their stability depends, inter alia, on temperature. Therefore, the stability of the collagen triple helix changes with the change of this factor. Due to the fact that the studied collagen fragments can be potentially used in regenerative medicine, it was necessary to check the stability of the structure in the temperature range as close as possible to physiological conditions. Therefore, the tests were performed at 4 °C, 20 °C and 40 °C after incubation for 24 h. The incubation process was to enable the self-assembly to form structures that mimic the triple helix of collagen. […] In the spectra, the presence of a characteristic maximum at a wavelength of about 220 nm and a minimum at about 190–200 nm was observed. However, the most important fact is that these peptides formed stable three-dimensional structures even at 40 °C.
The CD spectra were recorded using a Jasco J-1500 instrument (Jasco, Cracow, Poland) and quartz cuvettes with 1 mm optical path lengths. The measurements were acquired in the range of 190–270 nm at temperatures of 4 °C, 20 °C and 40 °C by taking points every 5 nm, with a scan rate of 100 nm per min, an integration time of 1 s, and a bandwidth of 4 nm. The samples were prepared in MiliQ purity water with a final concentration of 0.1 mg/mL. Samples before CD measurements were incubated for 24 h. at 4 °C, 20 °C and 40 °C using a Lauda thermostat.

[2] = Microscopic examination of peptide aggregates stained with Congo Red; type: physicochemical; settings: phosphate buffer pH 7.2, 37.5 °C, 7 days
Description: In addition to CD studies, microscopic studies of peptides 1–33 and 2.1–2.4 stained with Congo Red were also performed. This method of visualization of peptide aggregates is a typical method of studying β-sheet structures in amyloid-type fibers.
In order to initiate aggregation, peptides were dissolved in a phosphate buffer solution of pH 7.2 and a concentration of 250 μM (approx. […] of peptide per 1 mL of solution) and incubated at 37.5 °C for 7 days.
Congo Red solution with a concentration of […] was prepared by dissolving the dye (Sigma-Aldrich) (17.42 mg; 0.025 mmol) in phosphate buffer (pH = 7.2) (10 mL) with the following composition: 100 mM NaH2PO4/Na2HPO4, 137 mM NaCl and 10% EtOH. Ethyl alcohol was added to the buffer to counteract the formation of dye micelles. A sample for microscopic analysis (peptide solution) was centrifuged at 12,000–14,000 rpm to precipitate. In the next step, the solution was decanted and the residue was washed three times with water to remove excess dye. Then, a suspension of the peptide in water was applied to a microscope slide. The samples were dried in a stream of air at room temperature and analyzed under polarized light.
The obtained structures were analyzed using a Delta Optical Genetic Pro (Warsaw, Poland) light microscope.

α1β1 integrin (ITGα1β1) = α1β1 integrin (ITGα1β1) (Homo sapiens, UniProt P05556+P56199); assay: MST determination of Kd for labeled α1β1 integrin and collagen IV fragments; type: binding
Sequence of α1β1 integrin (ITGα1β1) (P56199 29-1141 limits assumed): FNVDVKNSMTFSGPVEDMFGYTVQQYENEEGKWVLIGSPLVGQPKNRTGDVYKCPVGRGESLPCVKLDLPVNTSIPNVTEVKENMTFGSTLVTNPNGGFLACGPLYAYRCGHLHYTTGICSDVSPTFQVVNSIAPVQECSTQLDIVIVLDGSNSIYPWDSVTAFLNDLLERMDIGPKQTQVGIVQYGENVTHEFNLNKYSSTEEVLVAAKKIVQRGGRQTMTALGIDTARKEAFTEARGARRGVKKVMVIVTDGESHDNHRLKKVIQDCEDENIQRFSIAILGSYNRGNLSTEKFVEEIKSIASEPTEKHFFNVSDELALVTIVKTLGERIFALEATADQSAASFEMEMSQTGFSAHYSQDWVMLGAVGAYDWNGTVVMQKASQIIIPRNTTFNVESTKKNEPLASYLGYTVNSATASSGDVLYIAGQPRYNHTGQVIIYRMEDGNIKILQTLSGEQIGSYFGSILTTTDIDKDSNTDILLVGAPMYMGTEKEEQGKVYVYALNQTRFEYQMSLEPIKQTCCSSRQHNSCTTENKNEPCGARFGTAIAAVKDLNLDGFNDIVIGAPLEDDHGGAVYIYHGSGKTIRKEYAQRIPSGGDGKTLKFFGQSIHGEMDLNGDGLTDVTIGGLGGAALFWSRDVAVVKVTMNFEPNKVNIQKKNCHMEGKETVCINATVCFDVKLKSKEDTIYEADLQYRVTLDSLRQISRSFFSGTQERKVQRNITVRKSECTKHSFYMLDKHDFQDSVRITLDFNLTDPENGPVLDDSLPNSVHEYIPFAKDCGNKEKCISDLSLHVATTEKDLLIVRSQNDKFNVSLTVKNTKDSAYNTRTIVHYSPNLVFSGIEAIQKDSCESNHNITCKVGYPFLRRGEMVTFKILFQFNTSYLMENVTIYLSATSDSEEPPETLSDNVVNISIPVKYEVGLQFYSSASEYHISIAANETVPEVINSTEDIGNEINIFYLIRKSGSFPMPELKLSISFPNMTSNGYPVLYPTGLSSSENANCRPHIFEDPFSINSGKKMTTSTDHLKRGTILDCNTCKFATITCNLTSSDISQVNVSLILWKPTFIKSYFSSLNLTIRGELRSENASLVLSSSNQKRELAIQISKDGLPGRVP
Sequence of α1β1 integrin (ITGα1β1) (P05556 21-728 limits assumed): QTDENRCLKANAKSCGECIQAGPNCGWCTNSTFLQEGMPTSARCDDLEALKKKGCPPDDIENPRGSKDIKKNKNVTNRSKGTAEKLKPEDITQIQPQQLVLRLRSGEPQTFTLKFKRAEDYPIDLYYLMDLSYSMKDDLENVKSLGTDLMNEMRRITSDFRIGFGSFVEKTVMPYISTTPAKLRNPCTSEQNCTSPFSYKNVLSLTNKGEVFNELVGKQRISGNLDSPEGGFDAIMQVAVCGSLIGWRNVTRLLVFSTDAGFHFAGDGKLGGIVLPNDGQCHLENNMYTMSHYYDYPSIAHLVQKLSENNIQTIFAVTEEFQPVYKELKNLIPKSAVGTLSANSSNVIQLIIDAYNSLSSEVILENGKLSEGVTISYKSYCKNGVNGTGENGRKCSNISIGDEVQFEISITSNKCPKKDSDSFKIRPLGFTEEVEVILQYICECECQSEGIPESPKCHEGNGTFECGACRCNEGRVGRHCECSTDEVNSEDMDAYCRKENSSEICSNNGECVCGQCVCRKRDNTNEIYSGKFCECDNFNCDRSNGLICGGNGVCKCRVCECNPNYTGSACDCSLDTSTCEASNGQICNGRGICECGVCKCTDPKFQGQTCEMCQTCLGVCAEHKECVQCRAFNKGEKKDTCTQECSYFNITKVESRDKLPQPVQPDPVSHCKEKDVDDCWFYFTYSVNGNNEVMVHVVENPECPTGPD
Description: The tests were performed using the Microscale Thermophoresis (MST) technique [86]. […] For MST experiment His-tagged ITGα1β1 was labeled using a fluorescent dye, which enable a site-specific and stable noncovalent fluorescence labeling of polyhistidine-tagged proteins. The concentrations of labeled ITGα1β1 were kept constant at 25 nM, whereas the peptides were used as titration ligands with increasing concentrations.
The α1β1 integrin concentration was kept constant (25 nM), while the non-labeled binding partner collagen IV peptides were used at increasing concentrations as the titration ligand. The MST measurement was performed at 80% or 100% (for peptide 4) LED power and medium (40%) MST power. An MST-on time 4 s was used for analysis and a Kd (µM ± µM confidence) was derived for these interactions (n ≥ 3 independent measurements, error bars represent standard deviation).
• Preparation of Materials for MST Analysis • (1) ITGα1β1—a solution with a concentration of 9.3 µM was prepared. For this, 50 µL of sterile PBS (filtered through a 0.22 µm filter) was added to the protein. […] The fluorescent dye OG488 (ex = 498 nm, ex = 526 nm) provide an efficient method for site-specific and stable noncovalent fluorescence labeling of polyhistidine-tagged proteins. • (3) A 0.05% Tween20 solution in PBS (PBST) was prepared. • Testing the Affinity of the Dye to the Protein […]

Substance: ^21AGEKSYGKPC^30 [Peptide 1]
- ability to self-organize into structures mimicking the triple helix (CD) [1]: not found
- structure of aggregates stained with Congo Red [2]: fibrous structures resembling amyloid structures

Substance: ^23EKSYGKPCGGQDC^35 [Peptide 2.1]
- ability to self-organize into structures mimicking the triple helix (CD) [1]: not found
- structure of aggregates stained with Congo Red [2]: fibrous structures resembling amyloid structures

Substance: ^41CFPEKGARGR^50 [Peptide 2]
- ability to self-organize into structures mimicking the triple helix (CD) [1]: have the ability to self-organize to form structures that mimic the structure of the triple helix
- structure of aggregates stained with Congo Red [2]: only amorphous structures

Substance: ^81PGLLGPYGPK^90 [Peptide 3]
- ability to self-organize into structures mimicking the triple helix (CD) [1]: not found
- structure of aggregates stained with Congo Red [2]: fibrous structures resembling amyloid structures

Substance: ^251GFPKGKKGSK^260 [Peptide 6]
- ability to self-organize into structures mimicking the triple helix (CD) [1]: have the ability to self-organize to form structures that mimic the structure of the triple helix
- structure of aggregates stained with Congo Red [2]: only amorphous structures

Substance: ^311GPPGQQGKKG^320 [Peptide 7]
- ability to self-organize into structures mimicking the triple helix (CD) [1]: only at 4 °C
- structure of aggregates stained with Congo Red [2]: fibrous structures

Substance: ^471LKGIKGDSGF^480 [Peptide 9]
- ability to self-organize into structures mimicking the triple helix (CD) [1]: not found
- structure of aggregates stained with Congo Red [2]: fibrous structures resembling amyloid structures

Substance: ^541KGKKGEPILS^550 [Peptide 11]
- ability to self-organize into structures mimicking the triple helix (CD) [1]: not found
- structure of aggregates stained with Congo Red [2]: fibrous structures resembling amyloid structures

Substance: ^641PGQQGLPGSK^650 [Peptide 12]
- ability to self-organize into structures mimicking the triple helix (CD) [1]: only at 4 °C
- structure of aggregates stained with Congo Red [2]: fibrous structures

Substance: ^671PGFPGPKGSR^680 [Peptide 13]
- ability to self-organize into structures mimicking the triple helix (CD) [1]: only at 4 °C
- structure of aggregates stained with Congo Red [2]: fibrous structures

Substance: ^711GFPGPRGEKG^720 [Peptide 14]
- ability to self-organize into structures mimicking the triple helix (CD) [1]: have the ability to self-organize to form structures that mimic the structure of the triple helix
- structure of aggregates stained with Congo Red [2]: only amorphous structures

Substance: ^721LPGFPGLPGK^730 [Peptide 15]
- Kd (α1β1 integrin (ITGα1β1); labeled His-tagged ITGα1β1 25 nM, 22 °C, MST-on time 4 s, Kd ± confidence): no binding
- ability to bind to ITGα1β1 (in words) (α1β1 integrin (ITGα1β1); labeled ITGα1β1 25 nM): no binding
- Ability to Mimic the Structure of the Collagen Helix [1]: +++
- ability to self-organize into structures mimicking the triple helix (CD) [1]: have the ability to self-organize to form structures that mimic the structure of the triple helix
- structure of aggregates stained with Congo Red [2]: only amorphous structures

Substance: ^781PGLKGVHGKP^790 [Peptide 16]
- ability to self-organize into structures mimicking the triple helix (CD) [1]: not found
- structure of aggregates stained with Congo Red [2]: fibrous structures resembling amyloid structures

Substance: ^821GIKGKSGLPG^830 [Peptide 17]
- ability to self-organize into structures mimicking the triple helix (CD) [1]: only at 4 °C
- structure of aggregates stained with Congo Red [2]: fibrous structures

Substance: ^841PGKKGTRGKK^850 [Peptide 18]
- ability to self-organize into structures mimicking the triple helix (CD) [1]: only at 4 °C
- structure of aggregates stained with Congo Red [2]: fibrous structures

Substance: ^891LSGPKGEKGS^900 [Peptide 20]
- ability to self-organize into structures mimicking the triple helix (CD) [1]: not found
- structure of aggregates stained with Congo Red [2]: fibrous structures resembling amyloid structures

Substance: ^921LKGIPGSTGK^930 [Peptide 21]
- ability to self-organize into structures mimicking the triple helix (CD) [1]: not found
- structure of aggregates stained with Congo Red [2]: fibrous structures resembling amyloid structures

Substance: ^951PVGIPSPRRP^960 [Peptide 22]
- ability to self-organize into structures mimicking the triple helix (CD) [1]: not found
- structure of aggregates stained with Congo Red [2]: fibrous structures resembling amyloid structures

Substance: ^961MSNLWLKGDK^970 [Peptide 23]
- ability to self-organize into structures mimicking the triple helix (CD) [1]: not found
- structure of aggregates stained with Congo Red [2]: fibrous structures resembling amyloid structures

Substance: ^1001GAPGLPGIIK^1010 [Peptide 24]
- ability to self-organize into structures mimicking the triple helix (CD) [1]: not found
- structure of aggregates stained with Congo Red [2]: fibrous structures resembling amyloid structures

Substance: ^1101IGNIGFPGNK^1110 [Peptide 26]
- ability to self-organize into structures mimicking the triple helix (CD) [1]: have the ability to self-organize to form structures that mimic the structure of the triple helix
- structure of aggregates stained with Congo Red [2]: only amorphous structures

Substance: ^1211PGIGIGAPGK^1220 [Peptide 27]
- ability to self-organize into structures mimicking the triple helix (CD) [1]: not found
- structure of aggregates stained with Congo Red [2]: fibrous structures resembling amyloid structures

Substance: ^1221PGLRGQKGDR^1230 [Peptide 28]
- ability to self-organize into structures mimicking the triple helix (CD) [1]: only at 4 °C
- structure of aggregates stained with Congo Red [2]: fibrous structures

Substance: ^1311KGMRGEPGFM^1320 [Peptide 29]
- ability to self-organize into structures mimicking the triple helix (CD) [1]: not found
- structure of aggregates stained with Congo Red [2]: fibrous structures resembling amyloid structures

Substance: ^1446MPGQSMRVGYTL^1457 [Peptide 2.2]
- ability to self-organize into structures mimicking the triple helix (CD) [1]: only at 4 °C
- structure of aggregates stained with Congo Red [2]: fibrous structures

Substance: ^1451MRVGYTLVKH^1460 [Peptide 31]
- ability to self-organize into structures mimicking the triple helix (CD) [1]: not found
- structure of aggregates stained with Congo Red [2]: fibrous structures resembling amyloid structures

Substance: ^1453VGYTLVKHSQSE^1464 [Peptide 2.3]
- ability to self-organize into structures mimicking the triple helix (CD) [1]: only at 4 °C
- structure of aggregates stained with Congo Red [2]: fibrous structures

Substance: ^1520CHYARRNDKSYW^1531 [Peptide 2.4]
- ability to self-organize into structures mimicking the triple helix (CD) [1]: only at 4 °C
- structure of aggregates stained with Congo Red [2]: fibrous structures

Substance: ^1521HYARRNDKSY^1530 [Peptide 32]
- ability to self-organize into structures mimicking the triple helix (CD) [1]: not found
- structure of aggregates stained with Congo Red [2]: fibrous structures resembling amyloid structures

Substance: ^1661AGQLHTRVSR^1670 [Peptide 33]
- structure of aggregates stained with Congo Red [2]: fibrous structures
